Assay results: patent US8207135B2, “Compositions for and methods of enhancing the immune response to antigens” (Wittycell, priority 2007, dated 2012)

B1: ovalbumin (protein, UniProt P01012 2-386, looked up)
Ovalbumin: GSIGAASMEFCFDVFKELKVHHANENIFYCPIAIMSALAMVYLGAKDSTRTQINKVVRFDKLPGFGDSIEAQCGTSVNVHSSLRDILNQITKPNDVYSFSLASRLYAEERYPILPEYLQCVKELYRGGLEPINFQTAADQARELINSWVESQTNGIIRNVLQPSSVDSQTAMVLVNAIVFKGLWEKAFKDEDTQAMPFRVTEQESKPVQMMYQIGLFRVASMASEKMKILELPFASGTMSMLVLLPDEVSGLEQLESIINFEKLTEWTSSNVMEERKIKVYLPRMKMEEKYNLTSVLMAMGITDVFSSSANLSGISSAESLKISQAVHAAHAEINEAGREVVGSAEAGVDAASVSEEFRADHPFLFCIKHIATNAVLFFGRCVSP
notes: nominal antigen, Ovalbumin grade VII, Sigma

Key:
[1] = test system: Ova-specific target cells; assay: in vivo cytotoxic specific cell lysis assay (CD8+ T cell response) in immunized mice; design: species or system mouse; settings: for specific lysis of Ova-specific target cells in blood: Example 1, FIG. 1, 1 μg adjuvant with 50 μg Ova, day 11; for specific lysis of Ova-specific target cells in blood / average Ova-specific cell lysis / average Ova-specific cytotoxic response: IV; for average Ova-specific cell lysis: Example 4, FIG. 6, 400 μg Ova with or without 1 μg adjuvant (PBS-57 new formulation); for average Ova-specific cell lysis / average Ova-specific cytotoxic response / average OVA-specific cytotoxic response: day 11 blood; for percentage of specific lysis of the target cells by CD8+ T cells: Example 5 Experiment B, FIG. 8, 50 μg OVA with 10 ng adjuvant intramuscularly; for average Ova-specific cytotoxic response: Example 2, FIG. 2; for average Ova-specific cytotoxic response / average OVA-specific cytotoxic response: 400 μg Ova with or without 1 μg adjuvant; for average OVA-specific cytotoxic response: Example 2, FIG. 3, IM
[2] = test system: CD8+ T cells responsive to OVA; assay: SIINFEKL pentamer assay of OVA-specific CD8+ T cells (FACS); assay type: in vivo, mouse; settings: IM, days 0 and 14, blood day 21
Description: To verify the results obtained using the in vivo cytotoxicity assay described in the Examples above, similar experiments were performed and CD8+ T cell activation was determined by measuring the percentage of OVA-specific CD8+ T cells using a pentamer assay. Briefly, mice were injected intramuscularly with the indicated amounts of OVA and test adjuvant compound at either 1 μg or 100 ng per mouse, respectively on day 0 as follows:
Experiment A: • Group 1: 100 μl of PBS; • Group 2: 50 μg of Ova into 100 μl PBS; • Group 3: 50 μg of Ova with 1 μg αGalCer; • Group 4: 50 μg of Ova with 1 μg PBS-11 • Group 5: 50 μg of Ova with 1 μg PBS-14 • Group 6: 50 μg of Ova with 1 μg PBS-57 • Group 7: 50 μg of Ova with 1 μg PBS-96
Experiment B: • Group 1: 100 μl of PBS; • Group 2: 50 μg of Ova into 100 μl PBS; • Group 3: 50 μg of Ova with 100 ng αGalCer; • Group 4: 50 μg of Ova with 100 ng PBS-11 • Group 5: 50 μg of Ova with 100 ng PBS-14 • Group 6: 50 μg of Ova with 100 ng PBS-57 • Group 7: 50 μg of Ova with 100 ng PBS-96 A second injection was administered to the mice on day 14 and blood was collected from the mice on day 21. The lymphocytes were collected and analyzed by FACS analysis using H-2 K^b SIINFEKL pentamer and CD8 antibody to detect CD8+ T cells responsive to OVA.

IFNγ = assay: in vivo IFNγ release in sera by ELISA 24 hours after inoculation; design: species or system C57BL/6 mice; settings: Quantikine kit, FIG. 4
Description: To test the ability of the adjuvant test compounds to stimulate in vivo cytokine release, C57BL/6 mice were administered the compounds at different concentrations intravenously and the production of IFNγ in sera was measured 24 hours later by ELISA. Groups of 3 mice were inoculated intravenously (tail vein) on day 0 as follows: • Group 1: 100 μl of PBS alone • Group 2: 1 μg of αGalCer in 100 μl of PBS • Group 3: 100 ng of αGalCer in 100 μl of PBS • Group 4: 1 ng of αGalCer in 100 μl of PBS • Group 5: 0.1 ng of αGalCer in 100 μl of PBS • Group 6: 100 ng of αGalCer and 100 μg of Ova in 100 μl of PBS • Group 7: 1 μg of PBS-57 in 100 μl of PBS • Group 8: 100 ng of PBS-57 in 100 μl of PBS • Group 9: 1 ng of PBS-57 in 100 μl of PBS • Group 10: 0.1 ng of PBS-57 in 100 μl of PBS • Group 11: 100 ng of PBS-57 and 400 μg of Ova into 100 μl of PBS • Group 12: 1 μg of PBS-14 in 100 μl of PBS • Group 13: 100 ng of PBS-14 in 100 μl of PBS • Group 14: 1 ng of PBS-14 in 100 μl of PBS • Group 15: 0.1 ng of PBS-14 in 100 μl of PBS • Group 16: 100 ng of PBS-14 and 400 μg of Ova in 100 μl of PBS • Group 17: 1 μg of PBS-96 in 100 μl of PBS • Group 18: 100 ng of PBS-96 in 100 μl of PBS • Group 19: 1 ng of PBS-96 in 100 μl of PBS • Group 20: 0.1 ng of PBS-96 in 100 μl of PBS • Group 21: 100 ng of PBS-96 and 400 μg of Ova in 100 μl of PBS. 24 hours after inoculation, blood samples were collected from the mice and IFNγ levels were detected by ELISA kit. Two ELISA kits were used, Quantikine mouse IFNγ (RD systems) was used to test all samples and ELISA mIFNγ (Diaclone) was used to test group 1, 2, 3, 6, 7, 8, 11, 12, 13, 16, 17, 18 and 21. All sera were diluted before use in ELISA as follows:
Results are expressed as IFNγ concentration (pg/ml) in sera and take into account the dilution factor. FIG. 4 depicts results using the Quantikine mouse IFNγ kit by RD systems. FIG. 4A depicts results of IFNγ levels for mice immunized with PBS-57, FIG. 4B depicts results of IFNγ levels for mice immunized with PBS-14, FIG. 4C depicts results of IFNγ levels for mice immunized with PBS-96 and FIG. 4D depicts results of IFNγ levels for mice immunized with αGalCer. At 0.1 ng, all adjuvant candidates induce cytokine release, but mice immunized with αGalCer produced three- or four-fold less IFNγ than mice immunized with PBS-57, PBS-14 or PBS-96 (1540.57±397.53 pg/ml, 4398.05±880.86 pg/ml, 6669.31±1231.82 pg/ml, 5823.33±720.69 pg/ml respectively).
Another set of mice were used to compare the ability of adjuvant compounds to stimulate in vivo cytokine release by the method described above. Five groups of C57BL/6 mice were administered 100 ng of PBS-57, PBS-14, PBS-96, or PBS-11 in 100 μl PBS or 100 μl PBS alone intravenously. The production of IFNγ in sera was measured 24 hours later by ELISA. FIG. 5 depicts results for mice immunized with 100 ng of PBS-11, PBS-96, PBS-14 and PBS-57.

OVA-specific IgG1 = OVA-specific IgG1 ELISA after intramuscular immunization; assay type: in vivo, mouse; settings: FIG. 11; IM, 50 μg OVA with 100 ng adjuvant, 14 days post-injection
Description: (§1) Mice (6 per group) were injected intramuscularly with 50 μg of OVA either alone or in combination with 100 ng of the indicated adjuvants (Freund's adjuvant was used as a positive control) as follows: • Group 1: […] of Ova with CFA/IFA (Positive control) • Group 2: 50 μg of Ova • Group 3: 50 μg of Ova and 100 ng of αGalCer • Group 4: 50 μg of Ova and 100 ng of PBS-11 • Group 5: 50 μg of Ova and 100 ng of PBS-14 • Group 6: 50 μg of Ova and 100 ng of PBS-57 • Group 7: 50 μg of Ova and 100 ng of PBS-96 At 14 days post-injection, blood samples were collected and ELISAs for IgG1 and IgG2a were performed using mouse monoclonal antibodies specific for OVA isotype IgG1 or IgG2a. The results are shown as the titer of the antibody in peripheral blood in ng/ml. The results for IgG1 are depicted in FIG. 11 and those for IgG2a are depicted in FIG. 12.

OVA specific IgG2a = assay: OVA-specific IgG2a ELISA after intramuscular immunization; assay type: in vivo, mouse; settings: FIG. 12; IM, 50 μg OVA with 100 ng adjuvant, 14 days post-injection
Description: as §1

[3] = Example 6 Experiment A, FIG. 9, 50 μg Ova with 1 μg adjuvant

Molecule | specific lysis of Ova-specific target cells in blood [1] | average Ova-specific cell lysis [1] | percentage of specific lysis of the target cells by CD8+ T cells [1] | percentage of OVA specific CD8+ T cells [2, 3] | average Ova-specific cytotoxic response [1] | average OVA-specific cytotoxic response [1] | enhancement of the CD8+ T cell response (specific lysis) at low doses ([1]; Example 5 Experiments A and B, FIGS. 7 and 8, 50 μg OVA with 100 ng or 10 ng adjuvant intramuscularly) | IFNγ concentration in sera (IFNγ; 0.1 ng IV) | IFNγ concentration in sera (IFNγ; 1 ng IV) | IFNγ concentration in sera (IFNγ; 100 ng IV) | IFNγ concentration in sera (IFNγ; 1 μg IV) | percentage of OVA specific CD8+ T cells ([2]; Example 6 Experiment B, FIG. 10, 50 μg Ova with 100 ng adjuvant) | OVA-specific IgG1 titer in peripheral blood (OVA-specific IgG1) | OVA specific IgG2a titer in peripheral blood (OVA specific IgG2a)
CCCCCCCCCCCCCCCCCCCCCCCCCC(=O)N[C@@H](CO[C@H]1O[C@H](CNC(=O)CCCC[C@@H]2SC[C@@H]3NC(=O)N[C@@H]32)[C@H](O)[C@H](O)[C@H]1O)[C@H](O)[C@H](O)CCCCCCCCCCCCCC [PBS-11, reference compound] | did not result in specific lysis of cells | 32.3±2.5% | indistinguishable from the controls | not as effective |  |  |  |  |  |  |  |  |  | 
CCCCCCCCCCCCCCCCCCCCCCCCCC(=O)N[C@@H](CO[C@H]1O[C@H](CNC(C)=O)[C@H](O)[C@H](O)[C@H]1O)[C@H](O)[C@H](O)CCCCCCCCCCCCCC [PBS-14] | resulted in cytotoxic lysis of Ova-specific target cells | 83.3±6.1% |  | enhanced the percentage of OVA specific CD8+ T cells | 83.3±6.1% | 52.07±29.56% | unexpectedly better than other adjuvants | 6669.31 ± 1231.82 pg/mL | 7481.15 ± 3454.03 pg/mL | 19582.18 ± 3421.20 pg/mL | 16392.53 ± 5957.70 pg/mL | surprisingly much better at enhancing the CD8+ T cell response | able to elicit a robust IgG1 titer | about as well as Freund's adjuvant
CCCCCCCC/C=C\CCCCCCCCCCCCCC(=O)N[C@@H](CO[C@H]1O[C@H](CNC(C)=O)[C@H](O)[C@H](O)[C@H]1O)[C@H](O)[C@H](O)CCCCCCCCCCCCCC [PBS-57, reference compound] |  | 88.1±6.2% | indistinguishable from the controls | enhanced the percentage of OVA specific CD8+ T cells | 88.1±6.2% | 56.11±13.34% |  | 4398.05 ± 880.86 pg/mL | 11425.98 ± 833.04 pg/mL | 21432.76 ± 4312.76 pg/mL | 3353.45 ± 867.57 pg/mL |  | able to elicit a robust IgG1 titer | 
CCCCCCCCCCCCCCCCCCCCCCCCCC(=O)N[C@@H](CO[C@H]1O[C@H](CO)[C@H](O)[C@H](O)[C@H]1O)[C@H](O)[C@H](O)CCCCCCCCCCCCCC [αGalCer, α-galactosyceramide, reference compound] |  |  | indistinguishable from the controls | not as effective | 79.9±0.8% | −5.85±11.01% |  | 1540.57 ± 397.53 pg/mL | 3802.99 ± 586.02 pg/mL | 7714.37 ± 3529.07 pg/mL |  |  |  | 
B1 |  | 11.8±14.4% |  |  | 11.8±14.4% | 1.60±14.33% |  |  |  |  |  |  |  | 
